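Step 1: Grow cells in 96-well plates. Step 2: Expose to compound for 48 hours at 5 concentrations. Step 3: Interpolate endpoints linearly; if unreached, use highest concentration. TGI marks complete inhibition of growth.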
How the values were obtained:
Test in all cases: DTP human tumour cell line panel, 48 h
[1] = tested on: A498 renal
[2] = tested on: A549 NSCLC
[3] = tested on: ACHN renal
[4] = tested on: CCRF-CEM leukemia
[5] = tested on: COLO 205 colon
[6] = tested on: DU-145 prostate
[7] = tested on: HCC-2998 colon
[8] = tested on: HCT-116 colon
[9] = tested on: HCT-15 colon
[10] = tested on: HL-60(TB) leukemia
[11] = tested on: HOP-92 NSCLC
[12] = tested on: HS 578T breast
[13] = tested on: HT29 colon
[14] = tested on: K-562 leukemia
[15] = tested on: KM12 colon
[16] = tested on: LOX IMVI melanoma
[17] = tested on: M14 melanoma
[18] = tested on: MCF7 breast
[19] = tested on: MDA-MB-231 breast
[20] = tested on: MDA-MB-435
[21] = tested on: MDA-N
[22] = tested on: MOLT-4 leukemia
[23] = tested on: NCI-H226 lung
[24] = tested on: NCI-H23 lung
[25] = tested on: NCI-H460 lung
[26] = tested on: NCI-H522 lung
[27] = tested on: NCI/ADR-RES ovarian
[28] = tested on: OVCAR-3 ovarian
[29] = tested on: OVCAR-4 ovarian
[30] = tested on: OVCAR-8 ovarian
[31] = tested on: PC-3 prostate
[32] = tested on: RXF 393 renal
[33] = tested on: SF-268 CNS
[34] = tested on: SF-295 CNS
[35] = tested on: SK-MEL-28 melanoma
[36] = tested on: SK-MEL-5 melanoma
[37] = tested on: SK-OV-3 ovarian
[38] = tested on: SN12C renal
[39] = tested on: SNB-19 CNS
[40] = tested on: SNB-75 CNS
[41] = tested on: SR leukemia
[42] = tested on: SW-620 colon
[43] = tested on: T-47D breast
[44] = tested on: TK-10 renal
[45] = tested on: U251 CNS
[46] = tested on: UACC-257 melanoma
[47] = tested on: UO-31 renal
[48] = tested on: 786-0 renal
[49] = tested on: BT-549 breast
[50] = tested on: CAKI-1 renal
[51] = tested on: EKVX NSCLC
[52] = tested on: HOP-62 NSCLC
[53] = tested on: IGROV1 ovarian
[54] = tested on: MALME-3M melanoma
[55] = tested on: OVCAR-5 ovarian
[56] = tested on: RPMI-8226 leukemia
[57] = tested on: SF-539 CNS
[58] = tested on: SK-MEL-2 melanoma
[59] = tested on: UACC-62 melanoma

Measured: TGI

N=C(N)SCCC(=O)CCSC(=N)N
not listed: [48] | [49] | [50] | [51] | [52] | [53] | [54] | [55] | [56] | [57] | [58] | [59]
> 100 µM: all other assays above

O=C(O)/C=C\C(=O)Nc1ccccn1
not listed: [7] | [18] | [44]
> 100 µM: all other assays above

Reference: PubChem BioAssay (NCI)
